In patent publication US11591306B2, “Vitamin E-based amphipathic compound, and use thereof” (Industry-University Cooperation Foundation Hanyang …, priority 2017, dated 2023):
Values joined by “and” are separate entries in the source; they are usually repeats but may differ in a detail not shown here. Equal values may be shown once. “Also recorded” adds a separate entry of the source.

Tests used:
β2AR-Gs complex [1] = biological target: T1, β2AR-Gs complex (Homo sapiens, UniProt P07550); conditions: complex purified by DDM, previous study; cited from earlier work
T1 construct: made in house
T1 sequence (P07550 whole entry): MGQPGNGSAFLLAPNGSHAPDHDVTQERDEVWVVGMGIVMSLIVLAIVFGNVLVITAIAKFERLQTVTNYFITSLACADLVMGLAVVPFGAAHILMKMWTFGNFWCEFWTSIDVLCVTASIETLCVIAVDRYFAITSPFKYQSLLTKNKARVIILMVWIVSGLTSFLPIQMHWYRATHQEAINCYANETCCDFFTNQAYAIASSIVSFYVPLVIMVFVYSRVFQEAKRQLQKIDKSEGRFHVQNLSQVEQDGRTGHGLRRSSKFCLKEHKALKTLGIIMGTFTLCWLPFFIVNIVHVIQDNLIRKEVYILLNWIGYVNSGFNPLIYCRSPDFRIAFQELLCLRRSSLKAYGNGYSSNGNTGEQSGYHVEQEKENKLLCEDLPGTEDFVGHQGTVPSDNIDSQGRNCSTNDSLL
T1 sequence (P63092 whole entry partner): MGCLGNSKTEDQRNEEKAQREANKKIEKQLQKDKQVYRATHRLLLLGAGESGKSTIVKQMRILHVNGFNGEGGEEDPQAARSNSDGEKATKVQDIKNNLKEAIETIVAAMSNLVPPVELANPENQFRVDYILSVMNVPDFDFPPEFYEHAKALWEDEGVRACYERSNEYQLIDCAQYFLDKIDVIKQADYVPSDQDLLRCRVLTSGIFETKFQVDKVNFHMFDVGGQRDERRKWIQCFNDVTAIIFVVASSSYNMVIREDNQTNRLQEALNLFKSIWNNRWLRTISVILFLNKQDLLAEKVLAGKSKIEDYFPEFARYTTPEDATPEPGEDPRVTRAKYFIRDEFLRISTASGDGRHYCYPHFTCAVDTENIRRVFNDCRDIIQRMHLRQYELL
T1 sequence (P62873 whole entry partner): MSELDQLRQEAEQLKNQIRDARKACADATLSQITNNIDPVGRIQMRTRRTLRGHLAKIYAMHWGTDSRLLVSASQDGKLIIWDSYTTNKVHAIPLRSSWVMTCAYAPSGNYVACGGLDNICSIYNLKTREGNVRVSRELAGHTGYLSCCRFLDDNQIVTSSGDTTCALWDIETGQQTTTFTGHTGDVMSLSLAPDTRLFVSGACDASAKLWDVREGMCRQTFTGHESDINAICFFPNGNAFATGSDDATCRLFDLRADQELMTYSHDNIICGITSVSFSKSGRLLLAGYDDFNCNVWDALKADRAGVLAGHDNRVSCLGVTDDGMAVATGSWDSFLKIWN
T1 sequence (P59768 2-68 partner limits assumed): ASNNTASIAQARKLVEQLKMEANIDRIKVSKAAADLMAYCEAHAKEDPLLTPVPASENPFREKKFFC

β2AR-Gs complex [2] = biological target: T1, β2AR-Gs complex; conditions: DDM-purified complex, previous study; cited from earlier work
[3] = Critical micelle concentration by hydrophobic fluorescence staining with diphenylhexatriene (DPH); format: physicochemical; conditions: aqueous solution
Description: A method of measuring CMC is not particularly limited, and may be a method widely known in the art, for example, fluorescent staining using diphenylhex riene (DPH).
(§1) To identify the properties of VEGs synthesized according to the synthetic methods of Preparation Examples 1 to […] molecular weights (M.W.) and critical micellar concentrations (CMCs) of VEGs, and the hydrodynamic radii (Rh) of formed micelles were measured.
(§2) Specifically, the CMCs were measured using hydrophobic fluorescence staining and diphenylhexatriene (DPH), and the hydrodynamic radii (Rh) of the micelles formed by each formulation were measured by dynamic light scattering (DLS).

[4] = Hydrodynamic radius of micelles by dynamic light scattering (DLS); format: physicochemical; conditions: at 1.0 wt %
Description: A method of measuring the radius of a micelle is not particularly limited, but may be a method well known in the art, for example, dynamic light scattering (DLS).
as §1, §2

β2AR = biological target: T2, β2AR (Homo sapiens, UniProt P07550); assay: β2AR stability, [3H]-dihydroalprenolol (DHA) ligand binding; conditions: CMC+0.2 wt %, 10 days at room temperature
T2 construct: made in house; host or cells: Sf9 insect cells, baculovirus
T2 sequence (P07550 whole entry): as the sequence (P07550 whole entry) above
Description: A receptor was expressed in Sf9 insect cells infected with Baculovirus and solubilized in 1% DDM. The DDM-solubilized receptor was purified by alprenolol-sepharose in the presence of 0.01% cholesteryl succinate (CHS). β2AR purified by DDM was diluted with a buffer containing DDM or VEGs (VEG-1, VEG-2, VEG-3 and VEG-5) to reach the final concentration of CMC+0.2 wt %. β2AR solubilized in each compound was stored for 10 days at room temperature, and the ligand binding ability of the receptor was measured at regular intervals by incubating the receptor with 10 nM radioactive [^3H]-dihydroalprenolol (DHA) for 30 minutes at room temperature. The mixture was loaded into a G-50 column, and a supernatant was collected using a certain amount of binding buffer (supplemented with […] pH 7.5, 100 mM NaCl, 0.5 mg/ml BSA). In addition, a 15 ml scintillation fluid was added. Receptor-binding [^3H]-DHA was measured using a scintillation counter (Beckman).

[5] = biological target: T3, MelBSt (melibiose permease) (Salmonella typhimurium, UniProt P30878); assay: MelBSt extraction/solubilization and thermal stability, SDS-PAGE and Western blotting
T3 construct: made in house; host or cells: E. coli DW2 (ΔmelB and ΔlacZY), plasmid pK95ΔAHB/WT MelBSt/CH10
T3 sequence (P30878 whole entry): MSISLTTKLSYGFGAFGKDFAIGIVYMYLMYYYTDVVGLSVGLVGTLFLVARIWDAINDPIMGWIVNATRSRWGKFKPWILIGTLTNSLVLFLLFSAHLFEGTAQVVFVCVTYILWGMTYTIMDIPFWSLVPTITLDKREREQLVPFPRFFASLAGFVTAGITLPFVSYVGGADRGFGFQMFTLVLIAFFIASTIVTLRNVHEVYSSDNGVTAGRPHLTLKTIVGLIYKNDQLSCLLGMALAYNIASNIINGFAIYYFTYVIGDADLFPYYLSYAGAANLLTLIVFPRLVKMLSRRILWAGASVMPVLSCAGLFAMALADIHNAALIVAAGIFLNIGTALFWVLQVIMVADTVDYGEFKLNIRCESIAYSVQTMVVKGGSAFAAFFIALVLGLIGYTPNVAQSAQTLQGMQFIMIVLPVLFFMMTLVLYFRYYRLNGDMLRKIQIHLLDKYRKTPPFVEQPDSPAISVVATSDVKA
Description: Specifically, Salmonella typhimurium MelBSt (melibiose permease) having a 10 His tag at the C-terminus was expressed in E. coli DW2 cells (ΔmelB and ΔlacZY) using a pK95ΔAHB/WT MelBSt/CH10 plasmid. Cell growth and membrane preparation were carried out according to the methods disclosed in the paper written by A. S. Ethayathulla et al. (Nat. Commun. 2014, 5, 3009). A protein assay was performed using a Micro BCA kit (Thermo Scientific, Rockford, Ill.). MelBSt stability in VEGs or DDM was evaluated using the protocol disclosed in Nat. Methods 2010, 7, 1003-1008, written by P. S. Chae et al. A MelBSt-containing membrane sample (the final protein concentration was 10 mg/mL) was incubated in a solubilization buffer containing 1.5% (w/v) DDM or VEGs (50 mM sodium phosphate, pH 7.5, 200 mM NaCl, 10% glycerol, 20 mM melibiose) at two different temperatures (0 and 23° C.) for 90 minutes. To remove an insoluble material, ultracentrifugation was performed using a Beckman Optima™ MAX ultracentrifuge equipped with a TLA-100 rotor at 355,590 g and 4° C. for 30 minutes. […] The loaded samples were analyzed by SDS-15% PAGE, and then visualized by immunoblotting with a Penta-His-HRP antibody (Qiagen, Germantown, Md.).
To assess the thermal stability of MelBSt in various amphipathic molecules, MelBSt extracted with individual amphipathic molecules at 23° C. was subjected to additional thermal treatment at three different temperature (45, 55 and 65° C.) and ultracentrifugation, followed by SDS-15% PAGE and Western blotting. MelBSt was detected using a SuperSignalWest Pico chemiluminescent substrate by an ImageQuant LAS 4000 Biomolecular Imager (GE Healthcare Life Science).

UapA [6] = biological target: T4, UapA (Emericella nidulans, UniProt Q07307, G411V); assay: UapA extraction and thermal stability by fluorescence size exclusion chromatography (FSEC); parameters: made in house; conditions: for UapA integrity after thermal treatment (FSEC): 45° C. for 10 minutes; for Ability to extract and solubilize UapA (FSEC): before thermal treatment, 60 minutes on ice
T4 sequence (Q07307 12-574 G411V): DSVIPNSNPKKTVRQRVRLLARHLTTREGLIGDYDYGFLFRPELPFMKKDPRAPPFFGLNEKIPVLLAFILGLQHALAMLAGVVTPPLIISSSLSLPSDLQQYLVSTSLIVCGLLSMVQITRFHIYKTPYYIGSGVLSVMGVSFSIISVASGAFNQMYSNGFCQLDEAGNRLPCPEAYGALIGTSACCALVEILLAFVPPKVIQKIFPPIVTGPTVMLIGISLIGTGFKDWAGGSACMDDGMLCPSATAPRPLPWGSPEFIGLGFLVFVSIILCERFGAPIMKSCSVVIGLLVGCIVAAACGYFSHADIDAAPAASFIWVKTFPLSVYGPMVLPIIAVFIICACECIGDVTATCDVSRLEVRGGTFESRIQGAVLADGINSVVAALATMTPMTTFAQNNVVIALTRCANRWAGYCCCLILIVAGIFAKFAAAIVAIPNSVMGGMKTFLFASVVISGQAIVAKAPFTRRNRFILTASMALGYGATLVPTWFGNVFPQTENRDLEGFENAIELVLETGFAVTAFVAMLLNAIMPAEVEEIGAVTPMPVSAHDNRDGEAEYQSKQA
Description: The membrane containing UapA was resuspended in a pH 8.0 PBS buffer containing 10 mM imidazole, 150 mM NaCl and 10% glycerol, and a protein concentration was measured. The membrane was adjusted to a concentration of 1 mg/ml, and a 1 ml aliquot was incubated for 60 minutes with each of 1.0 mL of DDM, LMNG, VEG-3 and VEG-5, on ice under stirring. A 100 uL aliquot was obtained from each tube and subjected to ultracentrifugation for 10 minutes at 150,000 g, and then fluorescent SEC (FSEC) was performed on each sample. The remaining soluble fractions were incubated for 10 minutes at 45° C. The thermally-treated samples were applied to FSEC to monitor the integrity of a transporter. FSEC was performed using a Superose6 column (GE Healthcare) equilibrated with a buffer containing an appropriate preparation (DDM, LMNG, VEG-3 or VEG-5).

UapA [7] = biological target: T4, UapA; assay: UapA thermal stability, CPM assay; parameters: made in house; host or cells: Saccharomyces cerevisiae FGY217 membranes; conditions: CMC+0.2 wt %, 40° C. for 120 minutes
Description: UapAG411VΔ1-11 (hereinafter, referred to as “UapA”) was expressed in a Saccharomyces cerevisiae FGY217 strain by GFP fusion, and isolated into a sample buffer (20 mM Tris (pH 7.5), 150 mM NaCl, 0.03% DDM, 1 mM xanthine), which was performed according to the method disclosed in the paper written by J. Leung et al. (Mol. Menthr. Biol. 2013, 30, 32-42). The protein was concentrated to be approximately 10 mg/ml using a 100 kDa molecular weight cutoff filter (Millipore). The protein was diluted 1:150 with a buffer containing DDM, VEG (VEG-1, VEG-2, VEG-3, VEG-4 or VEG-5) or LMNG at CMC+0.2 wt % in Greiner 96. CPM dye (Invitrogen) stored in DMSO (Sigma) was diluted with a dye buffer (20 mM Tris (pH 7.5), 150 mM NaCl, 0.03% DDM, 5 mM EDTA), and 3 μL of the diluted dye was added to an individual protein sample. The reaction mixture was treated at a constant temperature of 40° C. for 120 minutes. A fluorescence emission intensity was monitored using a microplate spectrofluorometer set to excitation and emission wavelengths of 387 and 463 nm, respectively. The maximum fluorescence value was used to calculate the percentage of a protein folded during incubation. The relative amount of the folded protein was plotted over time using GraphPad Prism.

[8] = 1.5 wt %, extracted at 23° C., then 55° C.

Row | SMILES | Integrity of the purified β2AR-Gs complex (β2AR-Gs complex [1]) | Homogeneity of β2AR-Gs complex particles (EM) (β2AR-Gs complex [2]) | CMC [3] | CMC (wt %) [3] [wt %] | Rh (nm), hydrodynamic radius of micelles [4] [nm] | Long-term β2AR activity ([3H]-DHA binding) (β2AR) | MelBSt extraction/solubilization efficiency from the cell membrane ([5]; 1.5 wt % detergent, 0° C. and 23° C., 90 minutes) | MelBSt solubilization efficiency ([5]; 1.5 wt %, extracted at 23° C., then 45° C.) | MelBSt solubilization efficiency [5, 8] | UapA integrity after thermal treatment (FSEC) (UapA [6]) | Ability to extract and solubilize UapA (FSEC) (UapA [6]) | MelBSt solubilization ability ([5]; 1.5 wt %, extracted at 23° C., then 65° C.) | MelBSt transporter solubilization ability in the thermal stability experiment ([5]; elevated temperatures (overall)) | Ability to maintain UapA in a structurally stable state (CPM assay) (UapA [7])
1 | CCCCCCCCCCCCO[C@@H]1O[C@H](CO)[C@@H](O[C@H]2O[C@H](CO)[C@@H](O)[C@H](O)[C@H]2O)[C@H](O)[C@H]1O [DDM, n-dodecyl-β-D-maltopyranoside, reference compound] | significant dissociation between the receptor and Gs protein even after 2 day-incubation | aggregation of particles | 0.17 mM and 0.170 mM | 0.0087 | 3.4 ± 0.0 | rapid loss of activity over time | more efficient; also recorded: higher protein extraction efficiency than VEGs | almost similar efficiencies | significant decrease | considerably degraded | superior to VEG-3 and VEG-5 | – | – | –
2 | Cc1c(C)c2c(c(C)c1OCCOCC(CO[C@@H]1OC(CO)[C@@H](O)[C@H](O)C1O)(CO[C@@H]1OC(CO)[C@@H](O)[C@H](O)C1O)CO[C@@H]1OC(CO)[C@@H](O)[C@H](O)C1O)CCC(C)(CCCC(C)CCCC(C)CCCC(C)C)O2 (stereo partly shown) [VEG-2] | – | – | ~0.003 mM | ~0.0003 | 4.7 ± 0.1 | consistently maintained during incubation for 10 days | – | – | – | – | – | – | – | –
3 | Cc1c(C)c2c(c(C)c1OCCC(CO[C@@H]1OC(CO)[C@@H](O[C@H]3OC(CO)[C@@H](O)[C@H](O)C3O)[C@H](O)C1O)CO[C@@H]1OC(CO)[C@@H](O[C@H]3OC(CO)[C@@H](O)[C@H](O)C3O)[C@H](O)C1O)CCC(C)(CCCC(C)CCCC(C)CCCC(C)C)O2 (stereo partly shown) [VEG-4] | – | – | ~0.003 mM | ~0.0003 | 5.1 ± 0.1 | – | – | – | remained intact | – | – | very excellent protein solubilization ability | higher transporter solubilization ability than DDM | –
4 | Cc1c(C)c2c(c(C)c1O[C@@H]1OC(CO[C@@H]3OC(CO)[C@@H](O)[C@H](O)C3O)[C@@H](O[C@@H]3OC(CO)[C@@H](O)[C@H](O)C3O)[C@H](O[C@@H]3OC(CO)[C@@H](O)[C@H](O)C3O)C1O[C@@H]1OC(CO)[C@@H](O)[C@H](O)C1O)CCC(C)(CCCC(C)CCCC(C)CCCC(C)C)O2 (stereo partly shown) [VEG-5] | – | – | ~0.002 mM | ~0.0002 | 3.9 ± 0.1 | rapid loss of activity over time | – | – | remained intact | maintained protein integrity | LMNG and DDM were superior to VEG-3 and VEG-5 | – | – | excellent ability to maintain UapA in a structurally stable state
5 | Cc1c(C)c2c(c(C)c1OCC(CO[C@@H]1OC(CO)[C@@H](O)[C@H](O)C1O)(CO[C@@H]1OC(CO)[C@@H](O)[C@H](O)C1O)CO[C@@H]1OC(CO)[C@@H](O)[C@H](O)C1O)CCC(C)(CCCC(C)CCCC(C)CCCC(C)C)O2 (stereo partly shown) [VEG-1] | – | – | ~0.002 mM | ~0.0002 | 4.2 ± 0.1 | – | – | – | – | – | – | – | – | –
6 | CCCCCCCCCCC(CCCCCCCCCC)(CO[C@@H]1O[C@H](CO)[C@@H](O[C@H]2O[C@H](CO)[C@@H](O)[C@H](O)[C@H]2O)[C@H](O)[C@H]1O)CO[C@@H]1O[C@H](CO)[C@@H](O[C@H]2O[C@H](CO)[C@@H](O)[C@H](O)[C@H]2O)[C@H](O)[C@H]1O [LMNG, reference compound] | – | – | – | – | – | – | – | – | – | considerably degraded | superior to VEG-3 and VEG-5 | – | – | –
